Measured values published in patent US4883798A, “Pharmaceutical compositions” (EGIS Gyogyszergyar, priority 1987, dated 1989).
Read-outs that look alike come from different tables or passages of the source.

Experiments:
[1] = test system: rats; assay: Analgesic activity "Writhing test" in rats (acetic acid i.p.); assay type: in vivo, rat; conditions: p.o., 1 hour before acetic acid i.p.
Experimental: Rats weighing 130-170 g were administered intraperitoneally 0.75% (v/v) acetic acid in a volume of 8 ml/kg. Five minutes after treatment with acetic acid the total number of characteristic writhing reactions was counted for 10 minutes and expressed as percentage of the control group.
(§1) The above tests are carried out by standard methods. […] Pharmacodyn. […] A., Risley E. A., Nuss, G. W.: Proc. Soc.

[2] = Acute toxicity in mice (p.o., 14 days observation); conditions: mouse, in vivo, po
Experimental: The experiments were performed in CFLP white mice of both sexes of 18-22 g body weight in groups of at least 10 animals. The test compound was applied p.o. dissolved in a solution containing 0.2% Tween-80 in distilled water in a volume of 20-30 ml/kg. The observation period after treatment lasted for 14 days. Statistical evaluation was carried out as described by Litchfield-Wilcoxon's method.
The above tests are carried out by standard methods. Reference is made to the following citations: Litchfield, J. T., Wilcoxon, F.: J. Pharmacol. Exp. Ther., 96, 99-113 (1949); Newbould, B. B.: Brit. J. Pharmacol. 35, 487 (1969); Shay, H., Kemarov, S. A., Fels, S. S., Meranze, D., Gruenstein, M., Siplet, H.: Gastroenterology 5, 45 (1945); Stickney, J. C., Northup, D. W., Van Liere, E. J.: Arch. int. Pharmacodyn. 147, 113 (1964); Winter, C. A., Risley E. A., Nuss, G. W.: Proc. Soc. Exp. Biol. Med. 111, 544-547 (1962).

[3] = test system: granulocytes; assay: Measurement of chemiluminescence of granulocytes (PHA-stimulated, luminol); assay type: cell-based, human (healthy volunteers); conditions: Homo sapiens, 0.25 h, read-out: IC50, chemiluminescence of granulocytes
Experimental: The test-compounds were dissolved in dimethyl-sulfoxide (DMSO) in a concentration of 10^-1 M, dilutions were made in the incubation medium employed. Heparinized blood (10 IU/ml) was taken from healthy volunteers. The blood was diluted with equal wolume of dextran, then the white blood cells were separated by sedimentation. The granulocytes were separated by Uromio gradient. […] The cell suspension was put in dark box for 15 min. Luminol was dissolved in concentrated NH4 OH and diluted in the following solution:
50 ml Tris-Parker medium (containing 1,2 g Tris, pH=7,4)
150 ml Parker tissue culture medium
4 ml glucose 40% w/v in water
The Luminol solution (500 μl) was measured in plastic vials and put in dark (37° C.). The reaction was started by addition of the cells and stimulating agent (Phytohaemaglutinin-PHA-10 μg/ml).
The vials were continuously and gently shaken and the PHA stimulation was measured in every 2,5 min. for 15 min. in a Beckmann LS-100 spectrometer (coincidence switched off). The percentage of the counts measured was calculated in comparison with the solvent treated control cells. At least 5 concentrations of each compound were investigated in at least 3 parallels.

[4] = test system: Wistar rats; assay: Antipyretic effect in rats (brewer yeast-induced fever); assay type: in vivo, rat (Wistar)
Experimental: The experiments were performed in groups of 10 Wistar rats of both sexes weighing 160-200 g. Fever was induced by 20% brewer yeast suspended in 0.9% saline solution, applied subcutaneously in a volume of 2 ml/rat distributed at various sites of the back. After 18 hours the test compound or the vehicle (control) was administered in volume of 10 ml./kg p.o. During this period the rats were fasted but received drinking water ad libitum. The rectal temperature of the animals was measured with a Thermotest thermometer 2 days before the administration of the test compound and after treatment every 60th minute. Animals with an increase of body temperature less than 0.8° C. were excluded from the experiment.
as §1

[5] = PHA 10 μg/ml stimulation, luminol 32 μM, 37° C., 15 min

Q: Which “Analgesic effect on rats, Therapeutical Index” value [1] does the source give for `COc1cccc(Cc2cnc(N)nc2N)c1` [Example 2, 2,4-Diamino-5-(3-methoxy-benzyl)-pyrimidine] here?
A: about 5.9

Q: What about the LD50 at 336 h [2] of the same molecule?
A: ~410 mg/kg

Q: What about the IC50 [3, 5] of the same molecule?
A: ~100 µM

Q: What does the source list for `CCOc1ccc(Cc2cnc(N)nc2N)cc1OC` [Example 7, 2,4-Diamino-5-(3-methoxy-4-ethoxy-benzyl)-pyrimidine]?
A: Analgesic effect on rats, Therapeutical Index [1]: about 7.6; LD50 at 336 h [2]: ~350 mg/kg; Maximal temperature decrease ([4]; 100 mg/kg p.o.): 0.7 °C; IC50 [3, 5]: ~1 µM

Q: What does the source list for `COc1ccc(Cc2cnc(N)nc2N)c(OC)c1` [Example 4, 2,4-Diamino-5-(2,4-dimethoxy-benzyl)-pyrimidine]?
A: Analgesic effect on rats, Therapeutical Index [1]: about 33.3; LD50 at 336 h [2]: ~2000 mg/kg

Q: For `COCCOc1ccc(Cc2cnc(N)nc2N)cc1OC` [Example 10, 2,4-Diamino-5-(3-methoxy-4-methoxyethoxy-benzyl)-pyrimidine], which “Analgesic effect on rats, Therapeutical Index” value [1] is on record?
A: < 14.3

Q: What about the LD50 at 336 h [2] of the same molecule?
A: < 500 mg/kg

Q: For `C=CCOc1ccc(Cc2cnc(N)nc2N)cc1OC.Cl` [Example 8, 2,4-Diamino-5-(3-methoxy-4-allyloxy-benzyl)-pyrimidine-hydrochloride], which “Analgesic effect on rats, Therapeutical Index” value [1] is on record?
A: about 42.9

Q: What about the LD50 at 336 h [2] of the same molecule?
A: ~1500 mg/kg

Q: What about the Maximal temperature decrease ([4]; 100 mg/kg p.o.) of the same molecule?
A: 0.8 °C

Q: What about the IC50 [3, 5] of the same molecule?
A: ~1 µM

Q: With `CCCCC1C(=O)N(c2ccccc2)N(c2ccccc2)C1=O` [Phenylbutazone, 3,5-dioxo-1,2-diphenyl-4-(n-butyl)-pyrazolidine, reference compound] as the molecule, how does the IC50 [3, 5] read?
A: 100 µM

Q: Which results are given for `CCCCOc1ccc(Cc2cnc(N)nc2N)cc1OC` [Example 9, 2,4-Diamino-5-(3-methoxy-4-n-butoxy-benzyl)-pyrimidine]?
A: Analgesic effect on rats, Therapeutical Index [1]: > 125.0; LD50 at 336 h [2]: > 2000 mg/kg; IC50 [3, 5]: ~1 µM

Q: Which “Analgesic effect on rats, Therapeutical Index” value [1] does the source give for `COc1cc(Cc2cnc(N)nc2N)ccc1OCc1ccccc1` [Example 11, 2,4-Diamino-5-(3-methoxy-4-benzyloxy-benzyl)-pyrimidine] here?
A: > 37.0

Q: And the LD50 at 336 h [2]?
A: > 2000 mg/kg

Q: What does the source list for `COc1cc(Cc2cnc(N)nc2N)cc(OC)c1` [Example 3, 2,4-Diamino-5-(3,5-dimethoxy-benzyl)-pyrimidine]?
A: Analgesic effect on rats, Therapeutical Index [1]: about 8.0; LD50 at 336 h [2]: ~800 mg/kg

Q: Which “Analgesic effect on rats, Therapeutical Index” value [1] does the source give for `COc1ccc(Cc2cnc(N)nc2N)cc1` [Example 1, 2,4-Diamino-5-(4-methoxy-benzyl)-pyrimidine] here?
A: about 8.1

Q: And the LD50 at 336 h [2]?
A: ~350 mg/kg

Q: And the Maximal temperature decrease ([4]; 200 mg/kg p.o.)?
A: 0.9 °C

Q: And the IC50 [3, 5]?
A: ~100 µM

Q: With `Br.COc1cc(Cc2cnc(N)nc2N)ccc1O` [Example 12, 2,4-Diamino-5-(3-methoxy-4-hydroxy-benzyl)-pyrimidine-hydrobromide] as the molecule, how does the “Analgesic effect on rats, Therapeutical Index” value [1] read?
A: > 40.0

Q: What about the LD50 at 336 h [2] of the same molecule?
A: > 2000 mg/kg

Q: With `COc1cccc(Cc2cnc(N)nc2N)c1OC` [Example 5, 2,4-Diamino-5-(2,3-dimethoxy-benzyl)-pyrimidine] as the molecule, how does the “Analgesic effect on rats, Therapeutical Index” value [1] read?
A: about 5.0

Q: And the LD50 at 336 h [2]?
A: ~500 mg/kg

Q: For `CC(=O)Oc1ccccc1C(=O)O` [Acetylsalicylic acid, reference compound], which Maximal temperature decrease ([4]; 200 mg/kg p.o.) is on record?
A: 1.0 °C

Q: With `Nc1ncc(Cc2ccc3c(c2)OCO3)c(N)n1` [Example 6, 2,4-Diamino-5-(3,4-methylenedioxy-benzyl)-pyrimidine] as the molecule, how does the “Analgesic effect on rats, Therapeutical Index” value [1] read?
A: about 57.7

Q: And the LD50 at 336 h [2]?
A: ~750 mg/kg

Q: And the Maximal temperature decrease ([4]; 100 mg/kg p.o.)?
A: 1.0 °C

Q: With `COc1ccc2c(c1)c(CC(=O)O)c(C)n2C(=O)c1ccc(Cl)cc1` [Indomethacin, 1-(p-chloro-benzoyl)-5-methoxy-2-methyl-1H-indole-3-acetic acid, reference compound] as the molecule, how does the “Analgesic effect on rats, Therapeutical Index” value [1] read?
A: 4.8

Q: What about the LD50 at 336 h [2] of the same molecule?
A: 22.5 mg/kg

Q: And the IC50 [3]?
A: 100 µM

Q: For `CN1C(C(=O)Nc2ccccn2)=C(O)c2ccccc2S1(=O)=O` [Piroxicam, 4-hydroxy-2-methyl-N-2-pyridyl-2H-1,2-benzothiazine-3-carboxamide-1,1-dioxide, reference compound], which IC50 [3, 5] is on record?
A: 100 µM
